# Experimental data: patent US20240066037A1 (priority 2020, published 2024)
# Read-outs that look alike come from different tables or passages of the source.
# Experiments:
# in vitro [1] = conditions: African green monkey
# SARS-CoV-1 (Toronto 2) = assay: microbe, parasite or virus in culture; type: cell-based; conditions: for IC50: Severe acute respiratory syndrome coronavirus, Vero C1008, 72 h, read-out: Antiviral IC50
# [2] = system: SARS-CoV-2 (USA_WA1/2020); assay: microbe, parasite or virus in culture; type: cell-based; conditions: for IC50: Severe acute respiratory syndrome coronavirus 2, Vero C1008, 72 h, read-out: Antiviral IC50
# MERS (EMC/2012) = assay: microbe, parasite or virus in culture; type: cell-based; conditions: for IC50: Middle East respiratory syndrome-related coronavirus
# [3] = system: SARS-CoV-2 (βCoV/KOR/KCDC03/2020); assay: microbe, parasite or virus in culture; type: cell-based; conditions: for IC50: Severe acute respiratory syndrome coronavirus 2, Calu-3, 24 h
# SARS-CoV-2 = type: cell-based
# HTNV = assay: organism not typed; type: cell-based; conditions: Vero
# MERS-CoV = assay: microbe, parasite or virus in culture; type: cell-based; conditions: Middle East respiratory syndrome-related coronavirus, MRC5
# Cat K [4] = target: Cat K (Macaca fascicularis, UniProt P61276); conditions: cited from earlier work
# NiV = assay: organism not typed; type: cell-based; conditions: HeLa
# WNV = assay: microbe, parasite or virus in culture; type: cell-based; conditions: West Nile virus, HeLa
# Cat S = Cat S (Rattus norvegicus, UniProt Q02765); conditions: cited from earlier work
# Cat D = Cat D (Homo sapiens, UniProt P07339); conditions: cited from earlier work
# MARV = assay: organism not typed; type: cell-based; conditions: HeLa
# EBOV (Makona) [5] = assay: microbe, parasite or virus in culture; type: cell-based; conditions: Zaire ebolavirus, HeLa
# EBOV (Makona) [6] = assay: microbe, parasite or virus in culture; type: cell-based; conditions: Zaire ebolavirus, Vero
# in vitro [7] = conditions: Syrian hamster
# Cat L [8] = target: Cat L (Mus musculus, UniProt P06797); conditions: cited from earlier work
# Cat V (L2) [9] = target: Cat V (L2) (Homo sapiens, UniProt O60911); conditions: cited from earlier work
# EBOV = conditions: rhesus monkey, in vivo
# Cat L [10] = target: Cat L (Rattus norvegicus, UniProt P07154); conditions: cited from earlier work
# EBOV (Kikwit) = assay: microbe, parasite or virus in culture; type: cell-based; conditions: Zaire ebolavirus, Vero
# Cat G = Cat G (Homo sapiens, UniProt P08311); conditions: cited from earlier work
# Cat L [11] = conditions: cited from earlier work
# Calpain = conditions: cited from earlier work
# LASV = assay: organism not typed; type: cell-based; conditions: HeLa
# Cat V (L2) [12] = conditions: cited from earlier work
# Cat K [13] = target: Cat K (Mus musculus, UniProt P55097); conditions: cited from earlier work
# Caspase 3-4 = conditions: cited from earlier work
# [14] = Vero C1008, read-out: Antiviral IC50 (std-incubation)
# [15] = Vero C1008, read-out: pre-incubation IC50
# Chain of Cat V (L2) (Homo sapiens, UniProt O60911) (O60911 114-334): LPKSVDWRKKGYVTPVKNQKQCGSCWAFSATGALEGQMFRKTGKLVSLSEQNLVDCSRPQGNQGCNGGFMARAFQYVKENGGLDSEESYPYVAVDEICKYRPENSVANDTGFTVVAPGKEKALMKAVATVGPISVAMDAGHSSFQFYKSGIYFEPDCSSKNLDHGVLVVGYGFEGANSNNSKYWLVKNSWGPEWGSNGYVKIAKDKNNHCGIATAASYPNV
# Chain of Cat G (P08311 21-244): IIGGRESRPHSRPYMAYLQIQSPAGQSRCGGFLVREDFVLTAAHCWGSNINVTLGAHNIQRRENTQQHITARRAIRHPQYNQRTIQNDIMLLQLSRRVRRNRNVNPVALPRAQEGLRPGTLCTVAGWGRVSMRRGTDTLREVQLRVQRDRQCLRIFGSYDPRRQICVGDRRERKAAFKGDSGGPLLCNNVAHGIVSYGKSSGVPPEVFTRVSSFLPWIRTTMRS
# Chain of Cat K (Mus musculus, UniProt P55097) (P55097 115-329): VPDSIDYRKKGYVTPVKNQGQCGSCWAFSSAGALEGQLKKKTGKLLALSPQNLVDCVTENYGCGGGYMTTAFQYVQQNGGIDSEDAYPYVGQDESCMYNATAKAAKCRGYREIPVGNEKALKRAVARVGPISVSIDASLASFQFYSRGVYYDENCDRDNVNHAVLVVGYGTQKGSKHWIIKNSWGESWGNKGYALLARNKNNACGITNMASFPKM
# Chain of Cat K (Macaca fascicularis, UniProt P61276) (P61276 115-329): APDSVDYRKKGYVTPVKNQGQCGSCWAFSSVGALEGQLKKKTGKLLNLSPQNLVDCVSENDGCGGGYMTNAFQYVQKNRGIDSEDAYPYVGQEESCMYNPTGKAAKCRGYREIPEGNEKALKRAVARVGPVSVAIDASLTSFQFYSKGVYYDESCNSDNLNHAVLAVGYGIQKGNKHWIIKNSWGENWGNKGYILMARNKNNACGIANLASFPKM
# Chain of Cat S (Q02765 113-330): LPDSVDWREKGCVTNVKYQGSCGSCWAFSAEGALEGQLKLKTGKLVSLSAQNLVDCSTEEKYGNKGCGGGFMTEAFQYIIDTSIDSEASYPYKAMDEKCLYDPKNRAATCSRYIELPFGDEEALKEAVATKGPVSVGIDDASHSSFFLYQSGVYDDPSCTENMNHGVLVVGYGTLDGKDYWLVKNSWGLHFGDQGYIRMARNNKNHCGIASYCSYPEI
# Chain of Cat L (Rattus norvegicus, UniProt P07154) (P07154 114-334): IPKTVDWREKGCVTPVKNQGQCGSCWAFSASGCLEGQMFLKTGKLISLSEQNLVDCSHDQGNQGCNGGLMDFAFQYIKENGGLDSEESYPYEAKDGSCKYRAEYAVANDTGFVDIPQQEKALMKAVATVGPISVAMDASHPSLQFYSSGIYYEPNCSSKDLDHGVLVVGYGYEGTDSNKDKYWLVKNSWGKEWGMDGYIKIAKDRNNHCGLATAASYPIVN
# Chain of Cat D (P07339 65-412): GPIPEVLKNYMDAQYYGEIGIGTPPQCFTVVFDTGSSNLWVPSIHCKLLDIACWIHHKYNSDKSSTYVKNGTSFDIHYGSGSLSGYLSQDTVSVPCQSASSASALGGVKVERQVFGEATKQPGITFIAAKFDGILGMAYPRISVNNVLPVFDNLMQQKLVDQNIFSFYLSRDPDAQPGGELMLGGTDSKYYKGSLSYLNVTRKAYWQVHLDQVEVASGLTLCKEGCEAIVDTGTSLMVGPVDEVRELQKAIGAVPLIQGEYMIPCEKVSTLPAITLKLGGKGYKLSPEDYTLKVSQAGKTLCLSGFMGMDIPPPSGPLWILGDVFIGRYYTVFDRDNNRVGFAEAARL
# Chain of Cat L (Mus musculus, UniProt P06797) (P06797 114-334): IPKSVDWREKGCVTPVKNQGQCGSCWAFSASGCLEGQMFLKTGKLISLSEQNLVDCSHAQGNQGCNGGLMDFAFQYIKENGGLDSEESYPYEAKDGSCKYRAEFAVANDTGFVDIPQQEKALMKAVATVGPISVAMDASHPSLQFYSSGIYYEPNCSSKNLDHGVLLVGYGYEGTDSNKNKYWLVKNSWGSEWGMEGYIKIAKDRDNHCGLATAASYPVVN
compound,measurement,setting,value
CCN(CC)CCCC(C)Nc1ccnc2cc(Cl)ccc12 (centres unmarked) [Chloroquine],CC50,in vitro [1],> 30 µM
same,IC50,SARS-CoV-1 (Toronto 2),2020 nM
same,IC50,[2],3.71 µM
same,IC50,MERS (EMC/2012); [14],21 µM
CCC(CC)COC(=O)[C@H](C)N[P@](=O)(OC[C@H]1O[C@@](C#N)(c2ccc3c(N)ncnn23)[C@H](O)[C@@H]1O)Oc1ccccc1 [Remdesivir],IC50,[3]; read-out: Exp. 1 IC50,1940 nM
same,IC50,[3]; read-out: Exp. 2 IC50,2150 nM
same,CC50,in vitro [1],> 30 µM
same,Selectivity Index CC50/IC50,SARS-CoV-1 (Toronto 2),>4.0
same,IC50,SARS-CoV-1 (Toronto 2),7420 nM
same,Selectivity Index CC50/IC50,[2],>7.2
same,IC50,[2],4.15 µM
same,Selectivity Index CC50/IC50,MERS (EMC/2012),>2.4
same,IC50,MERS (EMC/2012); [14],12.5 µM
CN(C)C(=O)COC(=O)Cc1ccc(OC(=O)c2ccc(NC(=N)N)cc2)cc1 [camostat],"SARS-CoV-2 activity in Calu-3 cells, expression of N protein",[3],reduced the expression of N protein
same,IC50,[3]; read-out: Exp. 1 IC50,160 nM
same,IC50,[3]; read-out: Exp. 2 IC50,290 nM
same,CC50,in vitro [1],> 50 µM
same,Selectivity Index CC50/IC50,SARS-CoV-1 (Toronto 2),>1
same,antiviral activity,SARS-CoV-1 (Toronto 2),no antiviral activity
same,IC50,SARS-CoV-1 (Toronto 2),> 50000 nM
same,Selectivity Index CC50/IC50,[2],>1
same,antiviral activity,[2],no antiviral activity
same,IC50,[2],> 50 µM
same,"SARS-CoV-2 antiviral activity, titer by plaque assay (FIG. 8A, words)",SARS-CoV-2,dose-dependent SARS-CoV-2 antiviral activity
same,Selectivity Index CC50/IC50,MERS (EMC/2012),>1
same,antiviral activity,MERS (EMC/2012),no antiviral activity
same,IC50,MERS (EMC/2012); [14],> 50 µM
same,IC50,MERS (EMC/2012); [15],> 50 µM
"CC(C)C[C@H](NC(=O)c1cc2ccccc2o1)C(=O)N[C@H]1CC[C@@H](C)N(S(=O)(=O)c2ccccn2)CC1=O [relacatib, N-((2S)-4-methyl-1-(((4S,7R)-7-methyl-3-oxo-1-(pyridin-2-ylsulfonyl)azepan-4-yl)amino)-1-oxopentan-2-yl)benzofuran-2-carboxamide]",EC50,HTNV,> 100 µM
same,EC50,MERS-CoV,40 nM
same,Ki,Cat K [4],0.04 nM
same,EC50,NiV,15 nM
same,"SARS-CoV-2 activity in Calu-3 cells, expression of N protein",[3],no measurable SARS-CoV-2 activity
same,IC50,[3]; read-out: Exp. 1 IC50,> 50000 nM
same,IC50,[3]; read-out: Exp. 2 IC50,> 50000 nM
same,EC50,WNV,> 100 µM
same,Ki,Cat S,5.5 nM
same,Ki,Cat D,> 10 µM
same,EC50,MARV,250 nM
same,EC50,EBOV (Makona) [5],360 nM
same,EC90,EBOV (Makona) [6],9.71 µM
same,CC50,in vitro [7],> 20 µM
same,Ki,Cat L [8],0.2 nM
same,Ki,Cat V (L2) [9],0.05 nM
same,Ki,"Cat V (L2) [9]; read-out: Ki, app",0.053 nM
same,"GI pathology in colon (FIG. 5C, words)",EBOV,enhanced GI pathology noted in colon
same,"Kaplan-Meier survival, P treatment versus vehicle control (Log-rank Mantel-Cox test)",EBOV; po,0.0565
same,CC50,in vitro [1],> 50 µM
same,IC50,SARS-CoV-1 (Toronto 2),230 nM
same,Ki,Cat L [10],0.2 nM
same,EC50,EBOV (Kikwit),2890 nM
same,Ki,Cat G,> 30 µM
same,Ki,Cat L [11],0.3 nM
same,IC50,[2],0.02 µM
same,Ki,Calpain,310 nM
same,EC50,LASV,> 100 µM
same,"SARS-CoV-2 antiviral activity, titer by plaque assay (FIG. 8A, words)",SARS-CoV-2,essentially no activity
same,Ki,Cat V (L2) [12],0.7 nM
same,Ki,Cat K [13],15 nM
same,Ki,Caspase 3-4,> 10 µM
same,IC50,MERS (EMC/2012); [14],0.6 µM
same,IC50,MERS (EMC/2012); [15],0.68 µM
